Experimental data from BindingDB's records for doi:10.1021/jm00065a015 (Smithkline Beecham Pharmaceuticals, 1993).

Biological target: T1, 5-hydroxytryptamine receptor 2C (Rattus norvegicus, UniProt P08909)
T1 sequence (P08909 whole entry): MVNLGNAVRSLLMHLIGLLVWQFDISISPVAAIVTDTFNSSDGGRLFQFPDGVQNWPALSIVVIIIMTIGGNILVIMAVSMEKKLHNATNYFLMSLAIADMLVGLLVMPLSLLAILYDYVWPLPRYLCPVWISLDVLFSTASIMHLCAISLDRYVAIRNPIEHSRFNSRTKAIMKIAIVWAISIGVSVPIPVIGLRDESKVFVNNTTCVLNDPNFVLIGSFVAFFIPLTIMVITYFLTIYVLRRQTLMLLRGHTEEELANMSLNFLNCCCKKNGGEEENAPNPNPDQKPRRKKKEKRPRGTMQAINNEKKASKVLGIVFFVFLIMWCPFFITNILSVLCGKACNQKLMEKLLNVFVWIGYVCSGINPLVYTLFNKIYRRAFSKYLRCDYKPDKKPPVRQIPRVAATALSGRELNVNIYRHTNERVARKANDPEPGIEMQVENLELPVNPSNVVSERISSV
Assay: Binding affinity for 5-hydroxytryptamine 1C receptor was determined

NCCc1c[nH]c2ccc(C(N)=O)cc12 [[3H]-5-carboxamidotryptamine]
Kd: 631 nM
